Values of other authors in US20080027034A1, “Ciclesonide and Syk Inhibitor Combination and Method of Use Thereof” (priority 2004, published 2008).

Key:
[1] = not given; remark: listed apart in the source
[2] = compared with budesonide

- metabolism by liver oxidases (liver oxidases): very high
- concentration of the drug in the lungs (lungs): high
- absorption after oral administration (oral administration): only moderately absorbed
- plasma half-life (plasma): low
SMILES: CC(C)C(=O)OCC(=O)[C@@]12O[C@H](C3CCCCC3)O[C@@H]1C[C@H]1[C@@H]3CCC4=CC(=O)C=C[C@]4(C)[C@H]3[C@@H](O)C[C@@]12C [Ciclesonide, [11β,16α(R)]-16,17-[(Cyclohexylmethylen)bis(oxy)]-11-hydroxy-21-(2-methyl-1-oxoprop-oxy)pregna-1,4-dien-3,20-dione]
- systemic activity relative to budesonide ([1]; compared with budesonide): three times lower
- systemic activity ([1]; in vivo): low
- anti-inflammatory activity relative to budesonide [2]: higher
